# Results as given in patent publication US8716246B2, “Azuvirin peptides” (The Regents of the University of California, priority 2011, dated 2014).
# Entries after “also recorded” stand apart in the source; their conditions may differ. Bridge positions count the residues as written; N and C are the ends. Square brackets hold non-standard residues; d marks the D form. Ends that are not written are not given here. Peptide text beside a SMILES is read from it. * marks the point of attachment. Oic = O=C(O)[C@@H]1C[C@@H]2CCCC[C@@H]2N1; Cha = N[C@@H](CC1CCCCC1)C(=O)O; Tle = CC(C)(C)[C@H](N)C(=O)O; Nicotinoyl = O=C(c1cccnc1)*; Acm = CC(=O)NC*
# Columns and labels:
# rhEphA2 = rhEphA2 (Homo sapiens, UniProt P29317); experiment: SPR binding to immobilized rhEphA2 (Biacore 3000); design: purchased R&D Systems, Inc., Minneapolis, Minn; settings: SPR; averaged from at least 4 independent experiments; read-out: KD ± SEM, rhEphA2
# Method: (§1) Binding to selected ephrin receptors was measured by surface plasmon resonance on a Biacore3000 instrument. Commercially available ephrin receptors: EphA2, EphB2 and EphB4 (R&D Systems) were immobilized on a CM-5 chip by amine coupling and tested peptides were passed over a chip surface as analytes.
# (§2) Binding studies. Binding studies were performed by surface plasmon resonance (SPR) on a BIAcore 3000 system (BiaCore AB, Piscataway, N.J.). BIAcore CM5 sensor chips were utilized in all experiments. Binding studies were performed in HBS-EP running buffer (pH=7.4) containing 10 mM HEPES, 150 mM NaCl, 3 mM EDTA, and 0.005% polysorbate 20. Commercially available ephrin receptors: EphA2, EphB2 and EphB4 (R&D Systems, Inc., Minneapolis, Minn.) were immobilized on a CM5 sensor chip using the amine coupling method. The chip was activated by mixing 400 mM N-ethyl-N-(3-dimethylaminopropyl)-carbodiimide hydrochloride and 100 mM N-hydroxysuccinimide. Residual reactive groups on the chip surface were blocked using 1.0 M ethanolamine/HCl (pH=8.5). The flow cell-1 chip, which served as a control, lacked immobilized protein but was treated with N-ethyl-N-(3-dimethylaminopropyl)-carbodiimide hydrochloride, N hydroxysuccinimide, and ethanolamine/HCl. Binding signals were corrected for nonspecific binding by subtracting the flow cell-1 signal (blank surface). To regenerate chip surfaces, bound ligands were removed with 10 mM HCl. Data were analyzed with BIAevaluation 4.1 software (Biacore, Piscataway, N.J.).
# rhEphB4 = target: T1, rhEphB4 (Homo sapiens, UniProt P54760); experiment: SPR binding to immobilized rhEphB4 (Biacore 3000); settings: SPR; averaged from at least 4 independent experiments; read-out: KD ± SEM, rhEphB4
# T1 construct: purchased R&D Systems, Inc., Minneapolis, Minn
# T1 sequence (P54760 16-987): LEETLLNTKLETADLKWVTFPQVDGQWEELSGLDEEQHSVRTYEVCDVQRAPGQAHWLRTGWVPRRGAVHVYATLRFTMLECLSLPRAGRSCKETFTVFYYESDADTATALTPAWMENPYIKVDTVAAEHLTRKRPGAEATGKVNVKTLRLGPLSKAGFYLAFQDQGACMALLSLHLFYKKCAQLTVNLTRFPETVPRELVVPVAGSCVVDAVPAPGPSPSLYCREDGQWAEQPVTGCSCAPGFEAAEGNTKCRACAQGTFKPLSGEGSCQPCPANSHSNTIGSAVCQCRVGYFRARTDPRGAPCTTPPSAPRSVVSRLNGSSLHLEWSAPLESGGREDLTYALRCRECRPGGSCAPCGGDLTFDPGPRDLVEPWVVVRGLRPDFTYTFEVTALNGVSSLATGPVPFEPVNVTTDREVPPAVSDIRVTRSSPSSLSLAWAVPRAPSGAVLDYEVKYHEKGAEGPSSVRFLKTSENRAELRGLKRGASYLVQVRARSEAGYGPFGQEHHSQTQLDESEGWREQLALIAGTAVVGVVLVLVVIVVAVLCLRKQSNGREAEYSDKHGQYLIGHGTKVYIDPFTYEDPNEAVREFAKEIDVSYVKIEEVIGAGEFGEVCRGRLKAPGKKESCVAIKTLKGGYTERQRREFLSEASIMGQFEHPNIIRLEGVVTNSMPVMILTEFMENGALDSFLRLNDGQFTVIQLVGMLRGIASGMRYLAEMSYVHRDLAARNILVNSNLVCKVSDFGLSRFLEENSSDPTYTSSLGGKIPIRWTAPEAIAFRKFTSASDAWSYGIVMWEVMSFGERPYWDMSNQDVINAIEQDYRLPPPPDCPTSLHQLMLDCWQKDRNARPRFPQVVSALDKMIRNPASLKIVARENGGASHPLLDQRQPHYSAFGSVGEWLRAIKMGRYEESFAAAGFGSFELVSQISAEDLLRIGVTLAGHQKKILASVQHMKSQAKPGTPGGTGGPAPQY
# Method: as §1, §2
# rhEphB2/Fc = rhEphB2/Fc (Homo sapiens, UniProt P29323); experiment: SPR binding to immobilized rhEphB2/Fc (Biacore 3000); design: Fc; purchased R&D Systems, Inc., Minneapolis, Minn; settings: SPR; averaged from at least 4 independent experiments; read-out: KD ± SEM, rhEphB2/Fc
# Method: as §1, §2
# [1] = system: Lewis lung carcinoma (LLC); experiment: Artificial metastasis model: i.v. Lewis lung carcinoma plus local thoracic irradiation, lung tumor nodules counted; format: in vivo, C57BL/6 mice; settings: for tumor colonies lower / radiation efficacy improved versus radiation alone: Example 1: 500 μg (~10 mg/kg) total i.p. in 4 daily doses 60 min before 4 Gy thoracic irradiation, equimolar controls, nodules day 14; for radiosensitizing effect in artificial metastasis model (in words): with radiation therapy (4 x 4 Gy), peptide or equimolar nicotinamide i.p. from day 4 after i.v. LLC
# Method: (§3) The AzV-36-Nic conjugate was tested in vivo for its ability to radiosensitize Lewis lung carcinoma (LCC) in an artificial metastasis model. Briefly, C57BL/6 mice (8 weeks old) were intravenously injected with 5×10^5 cells of syngeneic LLC. Various treatments were initiated 4 days later, after cancer engraftment. In general, each animal received intraperitoneally a total of 500 μg (˜10 mg/kg) of peptide in 4 daily doses 60 mins before local thoracic irradiation (4 Gy). Animals were sacrificed on the 14th day of the experiment and lung tumor nodules were counted.
# as §3, with “Animal experiments.” for “The AzV-36-Nic conjugate was tested in vivo for its ability to radiosensitize Lewis lung carcinoma (LCC) in an artificial metastasis model.”, “min” for “mins”
# Animal experiments. C57BL/6 gnotobiotic mice (8 weeks old) were obtained from the UCLA AALAC accredited Department of Radiation Oncology Facility and intravenously injected with 5×10^5 cells of syngeneic LLC. Various treatments were initiated 4 days later, after cancer engraftment. In general, each animal received intraperitoneally a total of 500 μg (˜25 mg/kg) of peptide (or equimolar amount of nicotinamide) in 4 daily doses 60 min before local thoracic irradiation (0 or 4 Gy, total dose: 4.4=16 Gy) that was delivered using an Atomic Energy of Canada cesium gamma irradiator with a dose rate of approximately 0.6 Gy/min with the rest of the body shielded. Prior to irradiation animals were anesthetized by intraperitoneal injection of ketamine/xylazine mixture. Animals were sacrificed on the 14th day of the experiment and lung tumor nodules were counted. All experiments were approved by the UCLA Animal Care and Use Committee and conformed to local and national guidelines.
Molecule,tumor colonies lower / radiation efficacy improved versus radiation alone [1],radiosensitizing effect in artificial metastasis model (in words) [1],also measured
"C[C@@H](O)[C@@H]1NC(=O)[C@H](CCCNC(=N)N)NC(=O)[C@H](Cc2c[nH]cn2)NC(=O)[C@@H](CCCNC(=N)N)NC(=O)[C@@H]2C[C@@H]3CCCC[C@@H]3N2C(=O)[C@H](CC2CCCCC2)NC(=O)[C@H](C(C)(C)C)NC(=O)[C@@H](NC(=O)[C@H](CC2CCCCC2)NC(=O)[C@H](CC2CCCCC2)NC(=O)[C@@H](CCCCN)NC(=O)[C@@H](N)Cc2ccc(O)cc2)CSSC[C@@H](C(=O)N[C@H](CCCCN)C(N)=O)NC(=O)[C@H](CC2CCCCC2)NC1=O [AzV36, Yk-Cha-Cha-Cys-Tle-Cha-Oic-rHRT-Cha-Cys-k-CONH] (H-Y[dK][Cha][Cha]C[Tle][Cha][Oic][dR]HRT[Cha]C[dK]-NH2; disulfide 5-14; N-terminus assumed)",1.3 fold,–,Kd (rhEphA2): 0.126 ± 0.011 µM; Kd (rhEphB4): 0.106 ± 0.015 µM; Kd (rhEphB2/Fc): 0.164 ± 0.011 µM
CC(=O)NCSC[C@H](NC(=O)[C@H](CC1CCCCC1)NC(=O)[C@H](CC1CCCCC1)NC(=O)[C@@H](CCCCN)NC(=O)[C@@H](N)Cc1ccc(O)cc1)C(=O)N[C@H](C(=O)N[C@@H](CC1CCCCC1)C(=O)N1[C@H](C(=O)N[C@H](CCCNC(=N)N)C(=O)N[C@@H](Cc2c[nH]cn2)C(=O)N[C@@H](CCCNC(=N)N)C(=O)N[C@H](C(=O)N[C@@H](CC2CCCCC2)C(=O)N[C@@H](CSCNC(C)=O)C(=O)N[C@H](CCCCN)C(N)=O)[C@@H](C)O)C[C@@H]2CCCC[C@@H]21)C(C)(C)C [AzV36-L] (H-Y[dK][Cha][Cha]C(Acm)[Tle][Cha][Oic][dR]HRT[Cha]C(Acm)[dK]-NH2; N-terminus assumed),–,no or minimal radiosensitizing effect; also recorded: only marginally improved radiation efficacy; also recorded: ineffective,–
"NC(=O)c1cccnc1 [nicotinamide, reference compound]",–,no or minimal radiosensitizing effect; also recorded: only marginally improved radiation efficacy,radiosensitizing effect in artificial metastasis model (in words) ([1]; listed as Nic): ineffective
"AzV-36-Nic: Example 1: AzV-36 conjugated with nicotinic acid via amide bond; linear, 15 residues; probably AzV36-NicL (Y[dK](Nicotinoyl)[Cha][Cha]C[Tle][Cha][Oic][dR]HRT[Cha]C[dK]-NH2; not fully specified (bridges); printed as YkNic-Cha-Cha-Cys-Tle-Cha-Oic-rHRT-Cha-Cys-k-CONH; cysteine pairing not given here)",3-10 fold,–,–
